Laboratory results from patent US4061645A, “2-Trichloromethyl-5-methylsulfinyl-1,3,4-thiadiazole” (Schering Aktiengesellschaft, priority 1972, dated 1977).
Where two headings read alike, the source gives them in different places.

Tests used:
[1] = system: Rhizoctonia solani; test: Rhizoctonia solani infested compost soil, marrow peas (Example 3); format: in vivo; conditions: for Weight of fresh plant / Root evaluation (1-4): 3 weeks; for Number of sound peas after 3 wks.: of 25 grains
From the text: Steamed compost soil was inoculated with mycelium of Rhizoctonia solani. After homogeneous mixture of the products with the infested soil, the products were present in the form of 20% powder preparations, the seeding of 25 grains of marrow peas of the variety "Miracle of Kelvedon" per concentration was effected without waiting period in clay dishes holding 1 liter of soil. The table lists the number of germinated sound peas, the weight of the fresh plant, and a root evaluation after a cultivation period of three weeks at 22°-25° C.

[2] = system: Rhizoctonia solani; test: Limit concentration of soil-fungicidal effectiveness, Rhizoctonia solani, infested soil seeded with peas (Example 1); format: in vivo; conditions: for minimal effective concentration: soil, 480 h, read-out: Limit concentration of the fungicidal effectiveness
Protocol: (§1) Limit concentrations of the soil-fungicidal effectiveness at homogeneous mixture of the products with the infested soil. Basic condition in the evaluation are a sound root formation without fungus necroses and germination of the seed of at least 90% compared with the result obtained in steamed soil. Per concentration there were seeded 25 grains of peas of the variety "Miracle of Kelvedon" (marrow pea) without a waiting period. The cultivation time in the tests was 20 to 23 days at a temperature of 22°-25° C. Four commercial products were included in the test series.
Rhizoctania solani: -- Steamed compost soil was inoculated with mycelium of Rhizoctonia solani.

[3] = system: Pythium ultimum; test: Pythium ultimum infested compost soil, marrow peas (Example 2); format: in vivo; conditions: for Number of sound peas after 3 wks.: of 25 grains
From the text: Steamed compost soil was inoculated with mycelium of Pythium ultimum.

[4] = system: Fusarium oxysporum f. callistephi; test: Fusarium infested compost soil, Callistephus chinesis seedlings (Example 5); format: in vivo; conditions: of 4 seedlings
From the text: Steamed compost soil was inoculated with a spore suspension of Fusarium oxysporum f. callistephi. After homogeneous mixture of the products with the infested soil, the products were present as 20% powder preparations, and after a waiting period of 8 days, there were set out per concentration 4 seedlings of Callistephus chinesis, master aster "Sun Ray" as host plants.

[5] = system: Pythium ultimum; test: Limit concentration of soil-fungicidal effectiveness, Pythium ultimum, infested soil seeded with peas (Example 1); format: in vivo; conditions: 20 to 23 days, 22°-25° C
Protocol: as §1
Pythium ultimum: -- Steamed compost soil was inoculated with mycelium of Pythium ultimum

[6] = system: Asperqilus niger; test: Agar test (Example 7), Aspergillus; format: cell-based; conditions: 10 ppm; 5 days at 22° C; control 100
Protocol: (§2) The fungicidal action of the agents according to the invention was tested in artificial nutrient media against plant-pathogenic fungi in Petri dishes (agar test). The procedure was to sterilize the medium consisting of 2% malt extract and 1.5% agar-agar powder. Before the solidification of the medium, the active substances were added to it, mixing thoroughly, so that the medium received 10 parts of active substance per million (ppm). After the solidification of the medium, the latter was inoculated with a platinum dropper which contained 100 spores each of the fungi to be tested, and after five days at 22° C, an evaluation was made by measuring the diameter of the colonies in mm.

[7] = system: Botrytis cinerea; test: Agar test (Example 7), Botrytis; format: cell-based; conditions: 10 ppm; 5 days at 22° C; control 100
Protocol: as §2

[8] = system: Helminthosporium sativum; test: Agar test (Example 7), Helminthosporium; format: cell-based; conditions: 10 ppm; 5 days at 22° C; control 100
Protocol: as §2

[9] = system: Colletotrichum gloeosporioides; test: Agar test (Example 7), Colletotrichum; format: cell-based; conditions: 10 ppm; 5 days at 22° C; control 100
Protocol: as §2

[10] = system: Stemphylium ilicis; test: Agar test (Example 7), Stemphylium; format: cell-based; conditions: 10 ppm; 5 days at 22° C; control 100
Protocol: as §2

[11] = system: Damping-off Fungi; test: Cotton seed disinfection, normal compost soil (Example 6); format: in vivo; conditions: 100 mg active ingr. per kg of seed; 10% formulation; 15 days
Protocol: Cotton seeds disinfected with 10% formulations were seeded in normal compost soil (Damping-off Fungi), 25 grains per concentration. After a cultivation time of 15 days at 22°-25° C, the number of germinated sound cotton seedlings and their weight as fresh plants were determined.

[12] = system: Meloidogyne incognita; test: Nematocidal action, infested compost soil, cucumber seeds (Example 8); format: in vivo; conditions: 30 days
Protocol: The products as 20% powder preparations were homogeneously admixed with a compost soil heavily infested by root gal nematodes. Without a waiting period, 20 cucumber seeds per concentration were seeded. After a cultivation time of 30 days at a temperature of 23°-25° C, the nematocidal action was evaluated by counting the root galls formed in the waterbath. The following table states the reduction of attack in percent. In the control, an average of 90 root galls per seedling had formed.

[13] = 10 mg active ingr. per liter of soil
[14] = 20 mg active ingr. per liter of soil
[15] = 30 mg active ingr. per liter of soil
[16] = 40 mg active ingr. per liter of soil
[17] = 200 mg active ingr. per liter of soil, 3 weeks
[18] = 50 mg active ingredient per liter of soil
[19] = 100 mg active ingredient per liter of soil
[20] = 10 mg active ingr. per liter of soil, 3 weeks
[21] = 20 mg active ingr. per liter of soil, 3 weeks
[22] = 30 mg active ingr. per liter of soil, 3 weeks
[23] = 50 mg active ingr. per liter of soil
[24] = 100 mg active ingr. per liter of soil

Row | SMILES | Weight of fresh plant [1, 13] [g] | Number of sound peas after 3 wks. [1, 13] | Weight of fresh plant [1, 14] [g] | Number of sound peas after 3 wks. [1, 14] | Weight of fresh plant [1, 15] [g] | Number of sound peas after 3 wks. [1, 15] | Number of attacked plants after 3 weeks [4, 18] | Number of attacked plants after 3 weeks [4, 19] | Limit concentration of the fungicidal effectiveness [5] | diameter of the colonies [6] [mm] | diameter of the colonies [7] [mm] | minimal effective concentration ([2]; 20 to 23 days, 22°-25° C) [µg/mL] | diameter of the colonies [8] [mm] | diameter of the colonies [9] [mm] | diameter of the colonies [10] [mm] | Sound plants in % [11] [%] | Weight of fresh plant [11] [g] | further results
1 | COc1cc(Cl)c(OC)cc1Cl [1,4-dichloro-2,5-dimethoxy-benzene, 1,4-dichloro-2,5-dimethoxybenzene, reference compound] | 0 | 0 | 0 | 0 | 18 | 21 | 4 | 4 | insufficient | – | – | – | – | – | – | – | – | Root evaluation (1-4) [1, 15]: 4; Root evaluation (1-4) [1, 16]: 4; Weight of fresh plant [1, 16]: 18 g; Number of sound peas after 3 wks. [1, 16]: 22; minimal effective concentration [2]: 30 µg/mL; Root evaluation (1-4) [3, 17]: 1; Weight of fresh plant [3, 17]: 1 g; Number of sound peas after 3 wks. ([3]; 200 mg active ingr. per liter of soil): 2; Number of attacked plants after 3 weeks ([4]; 200 mg active ingredient per liter of soil): 4
2 | C[S+]([O-])c1nnc(C(Cl)Cl)s1 (stereo not shown) [Compound 3, 2-dichloromethyl-5-methylsulfinyl-1,3,4-thiadiazole] | 0 | 0 | 2 | 2 | 21 | 22 | 0 | 0 | – | 50 | 36 | 30 | 0 | 0 | 0 | 100 | 29 | Weight of fresh plant [3, 20]: 22 g; Number of sound peas after 3 wks. [3, 13]: 24; Weight of fresh plant [3, 21]: 24 g; Number of sound peas after 3 wks. [3, 14]: 24; Weight of fresh plant [3, 22]: 22 g; Number of sound peas after 3 wks. [3, 15]: 25; Nematocidal action in % (reduction of attack) ([12]; 40 mg per liter of soil): 100%; Nematocidal action in % (reduction of attack) ([12]; 60 mg per liter of soil): 100%
3 | C[S+]([O-])c1nnc(C(Cl)(Cl)Cl)s1 (stereo not shown) [Compound 8, 2-trichloromethyl-5-methylsulfinyl-1,3,4-thiadiazole] | 17 | 21 | 17 | 24 | 17 | 24 | 0 | 0 | – | 0 | 0 | 10 | 0 | 0 | 0 | 96 | 29 | Weight of fresh plant [3, 20]: 12 g; Number of sound peas after 3 wks. [3, 13]: 19; Weight of fresh plant [3, 21]: 22 g; Number of sound peas after 3 wks. [3, 14]: 24; Weight of fresh plant [3, 22]: 22 g; Number of sound peas after 3 wks. [3, 15]: 25
4 | CS(=O)(=O)c1nnc(C(Cl)(Cl)Cl)s1 [Compound 21, 2-trichloromethyl-5-methylsulfonyl-1,3,4-thiadiazole] | 11 | 17 | 17 | 24 | 17 | 24 | 0 | 0 | – | 0 | 0 | 10 | 0 | 0 | 0 | 100 | 33 | –
5 | CCCCC(Br)c1nnc(S(C)(=O)=O)s1 (stereo not shown) [Compound 52, 2-(1-bromopentyl)-5-methylsulfonyl-1,3,4-thiadiazole] | – | – | – | – | – | – | – | – | no effect | – | – | 100 | – | – | – | – | – | –
6 | CC(C)CC(Br)c1nnc(S(C)(=O)=O)s1 (stereo not shown) [Compound 53, 2-(1-bromoisopentyl)-5-methylsulfonyl-1,3,4-thiadiazole] | – | – | – | – | – | – | – | – | no effect | – | – | 100 | – | – | – | – | – | –
7 | CS(=O)(=O)c1nnc(C(F)(F)Cl)s1 [Compound 54] | – | – | – | – | – | – | – | – | 10 mg of active substance per lit | – | – | – | – | – | – | – | – | Limit concentration of the fungicidal effectiveness ([2]; 20 to 23 days, 22°-25° C): 20 mg of active substance per lit
8 | C[S+]([O-])c1nnc(C(F)(F)Cl)s1 (stereo not shown) [Compound 55] | – | – | – | – | – | – | – | – | 10 mg of active substance per lit | – | – | – | – | – | – | – | – | Limit concentration of the fungicidal effectiveness ([2]; 20 to 23 days, 22°-25° C): 10 mg of active substance per lit
9 | O=[N+]([O-])c1c(Cl)c(Cl)c(Cl)c(Cl)c1Cl [Pentachloronitrobenzene, pentachloronitrobenzene, reference compound] | – | – | – | – | – | – | – | – | insufficient | – | – | – | – | – | – | – | – | Weight of fresh plant [1, 23]: 4 g; Number of sound peas after 3 wks. [1, 23]: 4; Weight of fresh plant [1, 24]: 15 g; Number of sound peas after 3 wks. [1, 24]: 25; minimal effective concentration [2]: 75 µg/mL
